The results in this text go back to patent publication US12123019B2, “Uses of kinase inhibitors for inducing and maintaining pluripotency” (Whitehead Institute for Biomedical Research, priority 2014, dated 2024).

The test system of assay [1] is OCT4-ΔPE-GFP+ naïve human ESCs. Nature of the assay: Maintenance of OCT4-ΔPE-GFP+ naïve human ESCs with additional media additives or changed basal medium. The assay is classed as cell-based. To be noted: for proportion of OCT4-ΔPE-GFP+ cells: inhibitor included in 5i/L/A medium, three passages. The source says: The kinase inhibitors reported by Hanna and colleagues may have an additive effect in combination with the 5i/L/A medium. […] Another difference between the naïve human studies reported to date is the use of 20% knock-out serum replacement (KSR) or Albumax-containing medium (Gafni et al., 2013; Valamehr et al., 2014; Ware et al., 2014) vs. serum-free N2B27 medium (this study). The consequences of applying the inhibitor cocktail in the presence of 20% KSR was therefore investigated. […] It is concluded that the induction and maintenance of OCT4-ΔPE-GFP+ human ESCs is highly sensitive to the choice of basal medium.

Assay [2] concerns WIBR3 OCT4-ΔPE-GFP+ human ESCs. Nature of the assay: Viability screen and titration: viable (DAPI-) OCT4-ΔPE-GFP+ cells after DOX withdrawal in 2i/L/SB590885. The assay is classed as cell-based. The conditions noted are these: for concentration giving a significant improvement in the proportion of viable GFP+ cells (titration): titration of PD0325901, CHIR99021 and SB590885, two passages after DOX withdrawal. The protocol:
To screen for small molecules that support naïve human pluripotency, doxycycline was withdrawn from a clonal line of WIBR3 OCT4-ΔPE-GFP+ human ESCs derived in 2i/L/DOX. 24 h after Dox withdrawal, cells were dissociated in 0.25% trypsin/EDTA solution (Invitrogen) and seeded at a density of 5000 cells per individual well in 96 well plates on a MEF feeder layer in 2i/L supplemented with the ROCK-inhibitor Y-27632. After an additional 24 h, 2i/L medium in each individual 96 well was supplemented with a kinase inhibitor from the LINCS inhibitor library (Gray Laboratory, Dana Farber Cancer Institute, Boston, MA) at a final concentration of 1 μM. To improve experimental consistency the small molecule library was applied using the Caliper RapidPlate 96 well Liquid Handling System (Zymark, Westborough, MA). Briefly, a master plate containing 10 mM stock solution of the library in DMSO was first diluted to 100 μM in HEPES aqueous solution (daughter plate), and subsequently to 10 μM in N2B27 basal medium supplemented with 2i/L (granddaughter plate). This granddaughter plate was then diluted a further 10× in 2i/L medium, the final medium was pre-mixed and applied slowly to the 96 well assay plate. Following two medium changes during a seven day period the proportion of OCT4-ΔPE-GFP+ human ESCs in each well was assessed using the High-Throughput System on the LSRFortessa (Beckton-Dickinson, San Jose, CA). To screen for small molecules that improve the proportion of viable OCT4-ΔPE-GFP+ cells, this assay was modified by the addition of 1.0 μM SB590885 to each well and inclusion of a 10 minute DAPI (Life Technologies) staining prior to high-throughput FACS analysis. Viable cells were gated from the DAPI-negative fraction and subsequently assessed for GFP status.
This led us to consider whether other small molecules could cooperate with 2i/L/SB590885 to improve the fraction of viable GFP+ cells. Inclusion of a live/dead assay enhanced the resolution of the 96 well high-throughput FACS analysis, allowing for more sensitive discrimination between the proportion of viable OCT4-ΔPE-GFP+ cells cultured in 2i/L/DOX vs. 2i/L/SB590885 (FIG. 3A). This viability assay was included in a modified screen in which GFP+ cells were cultured for two passages after DOX withdrawal in 2i/L/SB590885 supplemented with the kinase inhibitor library (FIG. 3B-C and FIG. 10A). […] A titration of the concentrations of PD0325901, CHIR99021 and SB590885 was also performed during two passages after DOX withdrawal followed by high-throughput FACS analysis (FIG. 3D). […] This is reminiscent of recent evidence that lowered GSK3 inhibition reduces differentiation and enhances the self-renewal of rat ESCs (Meek et al., 2013). […]

The test system of assay [3] is transgene-dependent naïve human ES cells (subclone of WIBR3). In words: Titration and proliferation assay in transgene-dependent naïve human ES cell line after DOX withdrawal (GSK3/Wnt signal modulators). The assay is classed as cell-based. The conditions noted are these: added to 4i/L/A: CHIR99021 1 μM replacing IM12, or IWR1 2.5 μM. Here is the method: A transgene-dependent naïve human embryonic stem (ES) cell line, a subclone of WIBR3, was used to titrate different concentrations of inhibitors in 5i/L/A (see Theunissen et al., Cell Stem Cell, 2014). The cell line used is dependent on Doxycycline (DOX) to maintain the expression of two lentiviral transgenes, KLF2 and NANOG. […] A titration assay was performed to determine the optimal concentrations of small molecule inhibitors to maintain naïve human DES cells. The cells were subject to sequential passaging by single cell dissociation at low density (1:10) under four conditions: 2i/L, 5i/L/A, t5i/L/A (0.2 μM GSK3 inhibitor IM12) and 4i/L/A (removal of GSK3 inhibitor IM12).
The proliferation of naïve human ES cells in the presence of different Wnt signal modulators was quantified after the withdrawal of DOX from the transgene-dependent cell line described above. In a six-well plate, 1×10^5 cells were seeded per well and cells were dissociated and re-seeded at a 1:5 density for three successive passages. Cell numbers at successive passages were recorded under six conditions (n=2 per group): 2i/L/DOX (control), 2i/L, 5i/L/A, 4i/L/A (removal of GSK3 inhibitor IM12), 4i/L/A+CHIR99021 (1 μM), and 4i/L/A+IWR1 (2.5 μM).

The test system of the next assay is OCT4-ΔPE-GFP+ human ESCs. Nature of the assay: Validation of hit compounds in 6 well format: DOX withdrawal and culture in 2i/L plus hit compound. Type of assay: cell-based. The source says: To identify compounds that sustain OCT4-ΔPE-GFP activity in the absence of KLF2 and NANOG expression, a kinase inhibitor library was screened in the presence of 2i/L for a period of 7 days after DOX withdrawal in 96 well format (FIG. 2A). This screen identified 10 different hit compounds that partially rescued the proportion of GFP+ cells when assayed by high-throughput FACS analysis (FIG. 2B-C and FIG. 9A). Notable among these hits were four separate inhibitors of BRAF and four inhibitors of upstream receptor tyrosine kinases (RTKs), including DDR1, VEGFR1 and FGFR1. A validation experiment was then performed in 6 well format by withdrawing DOX and culturing the cells in 2i/L supplemented with each hit compound for up to 10 passages (FIG. 2D). Nearly all hit compounds maintained a proportion of GFP+ cells similar to that observed with DOX. […] Gene expression analysis 5 passages after DOX withdrawal confirmed the absence of KLF2 and NANOG transgene expression and retention of endogenous OCT4 and GFP transcripts (FIG. 2E and FIG. 9B). To validate these findings in an independent system DOX-inducible KLF2 and NANOG transgenes were introduced in a line of wild-type WIBR3 human ESCs. Upon application of DOX and 2i/L, dome-shaped colonies appeared that could be expanded clonally.

Assay [4] concerns clonal line of OCT4-ΔPE-GFP+ cells derived in the absence of transgenes. Nature of the assay: Withdrawal of single kinase inhibitors or growth factors from 5i/L/FA medium. To be noted: for differentiation and expression of pluripotency genes: FGF and Activin A removed together from 5i/L/FA. The assay is classed as cell-based, human. An excerpt: To investigate the relative contribution of individual components in 5i/L/FA medium, single kinase inhibitors or growth factors were removed from a clonal line of OCT4-ΔPE-GFP+ cells derived in the absence of transgenes. […] Therefore, the maintenance of OCT4-ΔPE-GFP reporter activity is dependent primarily on MEK inhibition and BRAF inhibition, while robust proliferation of GFP+ cells requires ROCK inhibition. Recombinant FGF enhances the induction of naïve reporter activity, but can be omitted in established GFP+ cells.

[5] abbreviates: three passages after withdrawal of the component from 5i/L/FA.

In the case of `O=C1c2ccccc2-c2n[nH]c3cccc1c23` [SP600125], the “expression of KLF4 and KLF2” value in assay [1] (SP600125 added to 5i/L/A) is “increase in expression of KLF4 and KLF2”. Also, in assay [1], the “proportion of OCT4-ΔPE-GFP+ cells” value is listed as “did not affect”.
`Cc1cnc(-c2cnc(NCCNc3ccc(C#N)cn3)nc2-c2ccc(Cl)cc2Cl)[nH]1` [CHIR99021]: the results for the “proportion of viable GFP+ cells” value in assay [2] (higher concentrations of CHIR99021) and in assay [2] (lower concentrations of CHIR99021) were “opposite effect” and “improved the proportion of viable GFP+ cells”, respectively. Further, the “concentration giving a significant improvement in the proportion of viable GFP+ cells (titration)” value in assay [2] was 0.3 µM. Besides, the “proliferation of naïve human cells (cell number)” value in assay [3] is recorded as “did not further stimulate the proliferation”.
Consider `O=C(Nc1cccc2cccnc12)c1ccc(N2C(=O)[C@@H]3[C@H](C2=O)[C@@H]2C=C[C@H]3C2)cc1` [IWR1], for which the “proliferation of naïve human cells (cell number)” value in assay [3] is reported as “did not further stimulate the proliferation”.
As to `CN(C)CCOc1ccc(-c2nc(-c3ccncc3)c(-c3ccc4c(c3)CC/C4=N\O)[nH]2)cc1` [SB590885], in assay [2] (cells maintained in 2i/L/SB590885), the “viability (FACS-based live/dead discrimination assay)” value is recorded as “reduced viability”. In assay [2], the “concentration giving a significant improvement in the proportion of viable GFP+ cells (titration)” value is 0.5 µM. The “colony morphology and proliferation” value in the assay on OCT4-ΔPE-GFP+ human ESCs (6 well, 2i/L plus hit compound, up to 10 passages without DOX) is “preserved the best colony morphology and proliferation”. In addition, the “colony morphology and expression of endogenous OCT4” value in the assay with OCT4-ΔPE-GFP+ human ESCs (wild-type WIBR3 lines with DOX-inducible KLF2 and NANOG, maintained in 2i/L/SB590885 after DOX withdrawal) is “retaining both colony morphology and the expression of endogenous OCT4”. Besides, in assay [4] (setting [5]), the OCT4-ΔPE-GFP reporter activity entry was “rapid and widespread loss”; the colony morphology entry is “rapid and widespread loss”; the pluripotency gene expression entry is “rapid and widespread loss”.
For insulin: media additive, the “beneficial effect of additive” value in assay [1] (insulin added) was “A beneficial effect was not observed”.
Turning to `O=C(NOC[C@H](O)CO)c1ccc(F)c(F)c1Nc1ccc(I)cc1F` [PD0325901], the “concentration giving a significant improvement in the proportion of viable GFP+ cells (titration)” value in assay [2] worked out at 1 µM. In assay [4] (setting [5]), the OCT4-ΔPE-GFP reporter activity entry is “rapid and widespread loss”; the colony morphology result was “rapid and widespread loss”; the pluripotency gene expression result was “rapid and widespread loss”.
With `Cc1[nH]c2ccccc2c1C1=C(NCCc2ccc(F)cc2)C(=O)N(C)C1=O` [IM12], the “morphology upon long-term culture without DOX” value in assay [2] (CHIR99021 replaced with IM12) is “improved morphology”.
As to `CC(N)C1CCC(C(=O)Nc2ccncc2)CC1` (stereo not drawn) [Y-27632], the “proportion of viable GFP+ cells” value in assay [2] (Y-27632 (10 μM) added to 2i/L/SB590885 (0.5 μM), two passages) is recorded as “improved the proportion of viable GFP+ cells”. For the same compound, in assay [4] (setting [5]), the proliferation result is “significant reduction”.
Take `COc1ccc(N(C(=O)Oc2c(C)cccc2C)c2ccnc(Nc3ccc(N4CCN(C)CC4)cc3)n2)c(OC)c1` [WH-4-023]: in assay [2] (1 μM WH-4-023 combined with optimized concentrations of PD0325901, CHIR99021 and SB590885), the “proportion of viable OCT4-ΔPE-GFP+ cells after DOX withdrawal” value is on record as “further improved”. Besides, the “fraction of viable GFP+ cells” value in assay [2] (two passages after DOX withdrawal in 2i/L/SB590885 supplemented with kinase inhibitor library) is given as “improved the fraction of viable GFP+ cells”. In assay [4] (setting [5]), the OCT4-ΔPE-GFP reporter activity result is recorded as “slight reduction” and the colony morphology entry is “change in morphology”.
For `Cc1ccc(-n2nc(C(C)(C)C)cc2NC(=O)Nc2ccc(OCCN3CCOCC3)c3ccccc23)cc1` [BIRB796], in assay [1], the “proportion of OCT4-ΔPE-GFP+ cells” value is given as “did not affect”.
For the compound “FGF: recombinant fibroblast growth factor 2 (R&D systems, 8 ng/mL)”, the “differentiation and expression of pluripotency genes” value in assay [4] is “more differentiation and reduced expression”. In addition, the “any of the parameters examined” value in assay [4] (withdrawal of FGF from 5i/L/FA) is “no apparent effect”.
In the case of “Activin A: cytokine (Peprotech, 20 ng/mL)”, the “differentiation and expression of pluripotency genes” value in assay [4] was “more differentiation and reduced expression”. For the same compound, the OCT4-ΔPE-GFP reporter activity result in assay [4] (setting [5]) is listed as “did not cause a reduction”.
As to “hLIF: recombinant human LIF (made in-house)”, in assay [4] (setting [5]), the OCT4-ΔPE-GFP reporter activity entry is given as “unaffected” and the pluripotency gene expression result is recorded as “unaffected”.
